Reference: paper PMC7016641, “The Role of Transient Receptor Potential Melastatin 7 (TRPM7) in Cell Viability: A Potential Target to Suppress Breast Cancer Cell Cycle” (Cancers, 2020)

Molecular target: T1, TRPM7 (transient receptor potential melastatin 7) (Mus musculus, UniProt Q923J1)
T1 construct: murine TRPM7 (GenBank AF376052) overexpressed in HEK293 (HEK-M7)
Test: whole-cell patch clamp at +[…] mV; Fura-2 Mn2+ quench gave IC50 […]
Type: cell-based

T1 sequence (Q923J1 whole entry): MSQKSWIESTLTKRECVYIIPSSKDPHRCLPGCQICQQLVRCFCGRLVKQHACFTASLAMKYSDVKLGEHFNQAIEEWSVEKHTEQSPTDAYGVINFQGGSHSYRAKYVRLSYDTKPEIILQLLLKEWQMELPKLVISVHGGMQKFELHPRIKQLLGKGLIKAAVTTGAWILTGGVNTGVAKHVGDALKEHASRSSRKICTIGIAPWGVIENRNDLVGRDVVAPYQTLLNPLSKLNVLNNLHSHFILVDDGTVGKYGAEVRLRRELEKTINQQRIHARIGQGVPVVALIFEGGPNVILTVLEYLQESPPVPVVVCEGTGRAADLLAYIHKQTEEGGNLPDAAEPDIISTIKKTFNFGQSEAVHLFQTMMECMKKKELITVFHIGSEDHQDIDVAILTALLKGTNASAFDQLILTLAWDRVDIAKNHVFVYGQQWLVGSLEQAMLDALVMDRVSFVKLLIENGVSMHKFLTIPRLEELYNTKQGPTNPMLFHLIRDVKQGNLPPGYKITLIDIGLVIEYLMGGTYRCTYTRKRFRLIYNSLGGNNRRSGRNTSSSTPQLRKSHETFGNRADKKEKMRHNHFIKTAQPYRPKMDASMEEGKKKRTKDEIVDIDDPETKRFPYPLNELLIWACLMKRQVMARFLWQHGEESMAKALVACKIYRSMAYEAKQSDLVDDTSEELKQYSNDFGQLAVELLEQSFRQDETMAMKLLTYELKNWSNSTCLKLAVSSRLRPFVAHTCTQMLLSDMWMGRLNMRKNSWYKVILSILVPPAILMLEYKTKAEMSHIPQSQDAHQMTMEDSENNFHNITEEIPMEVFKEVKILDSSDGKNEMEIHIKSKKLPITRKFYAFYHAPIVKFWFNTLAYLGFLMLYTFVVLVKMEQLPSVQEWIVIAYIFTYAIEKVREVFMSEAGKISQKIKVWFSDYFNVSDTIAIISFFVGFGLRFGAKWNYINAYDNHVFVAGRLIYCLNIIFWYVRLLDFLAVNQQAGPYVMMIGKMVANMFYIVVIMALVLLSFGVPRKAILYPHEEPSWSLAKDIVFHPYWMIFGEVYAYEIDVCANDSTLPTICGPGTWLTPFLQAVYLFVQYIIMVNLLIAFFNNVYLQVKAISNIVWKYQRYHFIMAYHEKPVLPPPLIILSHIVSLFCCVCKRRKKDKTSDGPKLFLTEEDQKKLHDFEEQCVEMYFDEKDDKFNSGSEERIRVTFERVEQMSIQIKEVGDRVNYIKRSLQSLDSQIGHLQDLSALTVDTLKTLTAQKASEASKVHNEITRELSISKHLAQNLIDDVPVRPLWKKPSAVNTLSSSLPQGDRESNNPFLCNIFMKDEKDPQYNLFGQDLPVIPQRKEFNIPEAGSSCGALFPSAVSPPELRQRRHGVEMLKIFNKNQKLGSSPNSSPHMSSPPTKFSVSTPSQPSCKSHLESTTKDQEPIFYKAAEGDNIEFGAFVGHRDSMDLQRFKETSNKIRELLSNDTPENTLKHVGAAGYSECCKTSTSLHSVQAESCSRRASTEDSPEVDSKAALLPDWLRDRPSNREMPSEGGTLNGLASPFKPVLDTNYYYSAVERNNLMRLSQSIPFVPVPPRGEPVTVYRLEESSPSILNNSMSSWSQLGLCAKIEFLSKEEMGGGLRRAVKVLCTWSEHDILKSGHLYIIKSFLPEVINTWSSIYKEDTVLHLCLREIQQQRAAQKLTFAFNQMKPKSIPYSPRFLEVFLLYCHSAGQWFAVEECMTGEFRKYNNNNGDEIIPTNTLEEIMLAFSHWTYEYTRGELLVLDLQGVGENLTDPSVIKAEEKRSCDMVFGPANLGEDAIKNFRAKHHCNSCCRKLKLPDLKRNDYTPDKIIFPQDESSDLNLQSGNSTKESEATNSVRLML

`NCCOB(c1ccccc1)c1ccccc1` [2-APB, 2-aminoethyl diphenylborinate] showed an IC50 of 120 ± 16 µM.
